Assay results: US9815851B2, “Pyrrolo carboxamides as modulators of orphan nuclear receptor RAR-related orphan receptor-gamma (RORγ, NR1F3) activity and for the treatment of chronic inflammatory and autoimmune diseases” (PHENEX PHARMACEUTICALS AG, priority 2011, dated 2017)
Like-named read-outs stand apart in the source and are kept apart here.

Assays:
[1] = biological target: T1, RORγ ligand binding domain (LBD) (Homo sapiens, UniProt P51449); experiment: TR-FRET Activity Assay (ligand sensing, RORγ-LBD / coactivator peptide interaction, LANCE); assay type: biochemical
T1 construct: made in house; host or cells: E. coli BL-21 (BL3), vector pDEST15
T1 sequence (P51449 269-508 limits assumed): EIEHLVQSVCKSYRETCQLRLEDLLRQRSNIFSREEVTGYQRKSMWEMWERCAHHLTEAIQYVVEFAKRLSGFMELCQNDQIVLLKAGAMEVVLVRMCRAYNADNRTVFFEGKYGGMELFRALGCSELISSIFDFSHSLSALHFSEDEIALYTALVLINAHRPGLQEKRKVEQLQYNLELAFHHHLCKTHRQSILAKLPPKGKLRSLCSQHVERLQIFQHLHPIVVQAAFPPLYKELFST

RORγ = biological target: T2, RORγ (UniProt P51449); experiment: RORγ Gal4 Reporter Gene Assay in 293T cells (firefly and renilla luciferase); assay type: cell-based, human
T2 sequence (P51449 1-518): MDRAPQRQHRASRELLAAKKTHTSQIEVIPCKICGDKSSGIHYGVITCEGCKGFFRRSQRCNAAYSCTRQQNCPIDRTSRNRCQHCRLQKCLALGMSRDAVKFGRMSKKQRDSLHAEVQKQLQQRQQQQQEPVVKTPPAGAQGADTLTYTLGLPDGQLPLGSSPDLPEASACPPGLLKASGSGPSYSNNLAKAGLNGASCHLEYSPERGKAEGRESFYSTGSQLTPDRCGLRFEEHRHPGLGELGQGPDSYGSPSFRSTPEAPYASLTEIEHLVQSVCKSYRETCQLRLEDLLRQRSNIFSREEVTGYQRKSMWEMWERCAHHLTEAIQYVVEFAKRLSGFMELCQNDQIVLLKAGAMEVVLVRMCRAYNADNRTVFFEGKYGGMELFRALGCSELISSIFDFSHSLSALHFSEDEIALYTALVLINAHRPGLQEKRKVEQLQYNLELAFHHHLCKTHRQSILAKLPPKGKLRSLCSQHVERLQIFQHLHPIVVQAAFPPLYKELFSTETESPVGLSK

[2] = first value of the cell FRET/FF/REN, TR-FRET activity assay, read-out: pIC50 (FRET) (converted)
[3] = second value of the cell, Gal4 reporter gene assay in 293T cells, firefly luciferase
[4] = third value of the cell, Gal4 reporter gene assay in 293T cells, renilla normalised luciferase

Row | IC50 [1, 2] [nM] | pIC50 (FF) (RORγ; [3]) | pIC50 (REN) (RORγ; [4]) | Structure (SMILES) | IC50 [1] [nM] | pIC50 (FF) (RORγ) | pIC50 (REN) (RORγ)
1 |  |  |  | Cc1c(C(=O)NCC2(C)COC2)cc(-c2cc(C(C)(C)C)cc(C(C)(C)C)c2)n1CC1CCCCC1 [1/2] | 126 | 6.9/7.5/7.4 | 6.9/7.5/7.4
2 |  |  |  | Cc1c(C(=O)NCC(C)(C)C(N)=O)cc(-c2cc(C(C)(C)C)cc(C(C)(C)C)c2)n1CC1CCCCC1 [1/3] | 398 | 6.4/7.6/7.5 | 6.4/7.6/7.5
3 |  |  |  | Cc1c(C(=O)NCC(C)(C)NS(C)(=O)=O)cc(-c2cc(C(C)(C)C)cc(C(C)(C)C)c2)n1CC1CCCCC1 [1/4] | 316 | 6.5/7.5/7.6 | 6.5/7.5/7.6
4 |  |  |  | Cc1c(C(=O)NCC(=O)N(C)C)cc(-c2cc(C(C)(C)C)cc(C(C)(C)C)c2)n1CC1CCCCC1 [1/6] | 631 | 6.2/6.7/6.7 | 6.2/6.7/6.7
5 |  |  |  | COC1CN(C(=O)c2cc(-c3cc(C(C)(C)C)cc(C(C)(C)C)c3)n(CC3CCCCC3)c2C)C1 [1/8] | 316 | 6.5/6.4/6.3 | 6.5/6.4/6.3
6 |  |  |  | Cc1c(C(=O)NCCS(N)(=O)=O)cc(-c2cc(C(C)(C)C)cc(C(C)(C)C)c2)n1CC1CCCCC1 [1/9] | 316 | 6.5/6.6/6.7 | 6.5/6.6/6.7
7 |  |  |  | Cc1c(C(=O)NCC2CCOCC2)cc(-c2ccc(S(=O)(=O)NC(C)(C)C)c(C(C)(C)C)c2)n1CC1CCCCC1 [1/10] | 501 | 6.3/7.5/7.5 | 6.3/7.5/7.5
8 | 2000 | 6.1 | 6.1 | Cc1c(C(=O)NCCN2CCOCC2)cc(-c2ccc(S(=O)(=O)NC(C)(C)C)c(C(C)(C)C)c2)n1CC1CCCCC1 [1/11] |  |  | 
9 | 1260 | 6.4 | 6.5 | Cc1c(C(=O)NC2(C#N)CC2)cc(-c2cc(C(C)(C)C)cc(C(C)(C)C)c2)n1CC1CCCCC1 [1/12] |  |  | 
10 | 1260 | 6.2 | 6.1 | Cc1c(C(N)=O)cc(-c2ccc(S(=O)(=O)NC(C)(C)C)c(C(C)(C)C)c2)n1CC1CCCCC1 [1/13] |  |  | 
11 |  |  |  | Cc1c(C(=O)NC2CSC2)cc(-c2cc(C(C)(C)C)cc(C(C)(C)C)c2)n1CC1CCCCC1 [1/14] | 2000 | 5.7/6.5/6.6 | 5.7/6.5/6.6
12 | 3160 | 5.5/5.5/5.5 | 5.5/5.5/5.5 | Cc1c(C(=O)NC2CN(C(=O)OC(C)(C)C)C2)cc(-c2cc(C(C)(C)C)cc(C(C)(C)C)c2)n1CC1CCCCC1 [1/15] |  |  | 
13 | 6310 | 6.1 | 5.8 | Cc1c(C(=O)NC2COC2)cc(-c2cc(OCC(C)(C)C)nc(C(F)(F)F)c2)n1CC1CCCCC1 [1/16] |  |  | 
14 | 631 | 7.1 | 7.0 | Cc1c(C(=O)NC2COC2)cc(-c2cc(C(C)(C)C)c3c(c2)C(C)(C)CC(=O)N3)n1CC1CCCCC1 [1/18] |  |  | 
15 | 1000 | 6.9 | 6.9 | Cc1c(C(=O)NC2COC2)cc(-c2cc(C(C)C)c3c(c2)C(C)(C)N(C(C)C)S3(=O)=O)n1CC1CCCCC1 [1/22] |  |  | 
16 |  |  |  | COCOc1ccc(-c2cc(C(=O)NC3COC3)c(C)n2CC2CCCCC2)cc1C(C)(C)C [1/24] | 631 |  | 
17 |  |  |  | CC(C)(O)CNC(=O)c1cc(-c2ccc(S(=O)(=O)NC(C)(C)C)c(C(C)(C)C)c2)n(CC2CCCCC2)c1C(F)(F)F [1/26] | 10000 | 5.0/<4.7/<4.7 | 5.0/<4.7/<4.7
18 | 794 | 6.7 | 6.8 | COCc1c(C(=O)NCC(C)(C)O)cc(-c2ccc(S(=O)(=O)NC(C)(C)C)c(C(C)(C)C)c2)n1CC1CCCCC1 [1/28] |  |  | 
19 |  |  |  | COCc1c(C(=O)NC2CCOCC2)cc(-c2ccc(S(=O)(=O)NC(C)(C)C)c(C(C)(C)C)c2)n1CC1CCCCC1 [1/29] | 631 | 6.2/7.2/7.2 | 6.2/7.2/7.2

Row | IC50 [1, 2] [nM] | pIC50 (FF) (RORγ; [3]) | pIC50 (REN) (RORγ; [4]) | Structure (SMILES) | IC50 [1] [nM] | pIC50 (FF) (RORγ) | pIC50 (REN) (RORγ)
20 | 3980 | 6.4 | 6.2 | Cc1c(C(=O)NC2COC2)cc(-c2ccc(C(=O)NC(C)(C)C)c(C(C)(C)C)c2)n1CC1CCCCC1 [1/30] |  |  | 
21 | 2000 | 6.4 | 6.4 | Cc1c(C(=O)NC2COC2)cc(-c2ccc(C(=O)N(C)C(C)(C)C)c(C(C)(C)C)c2)n1CC1CCCCC1 [1/31] |  |  | 
22 | 1580 | 6.4 | 6.2 | Cc1c(C(=O)NC2COC2)cc(-c2ccc(C(=O)NCC(C)(C)C)c(C(C)(C)C)c2)n1CC1CCCCC1 [1/32] |  |  | 
23 | 794 | 6.6 | 6.5 | Cc1c(C(=O)NC2COC2)cc(-c2ccc(C(=O)N(C)CC(C)(C)C)c(C(C)(C)C)c2)n1CC1CCCCC1 [1/33] |  |  | 
24 | 1260 | 6.8 | 6.7 | Cc1c(C(=O)NC2COC2)cc(-c2ccc(C(=O)N3CCCCC3)c(C(C)(C)C)c2)n1CC1CCCCC1 [1/34] |  |  | 
25 |  |  |  | COC(C)(C)CNC(=O)c1cc(-c2cc(C(C)(C)C)cc(C(C)(C)C)c2)n(CC2CCCCC2)c1C [1/35] | 126 | 6.9/6.9/6.9 | 6.9/6.9/6.9
26 |  |  |  | Cc1c(C(=O)NC(C)C(C)(C)O)cc(-c2cc(C(C)(C)C)cc(C(C)(C)C)c2)n1CC1CCCCC1 (centres unmarked) [1/36] | 158 | 6.8/6.5/6.6 | 6.8/6.5/6.6
27 |  |  |  | Cc1c(C(=O)NCC(C)(C)O)cc(-c2cc(C(C)(C)C)c3c(c2)C2(CCO3)CC2)n1CC1CCCCC1 [1/39] | 316 | 6.5/6.9/7.0 | 6.5/6.9/7.0
28 |  |  |  | Cc1c(C(=O)NCCCCCO)cc(-c2cc(C(C)(C)C)c3c(c2)C2(CCO3)CC2)n1CC1CCCCC1 [1/40] | 251 | 6.6/7.5/7.6 | 6.6/7.5/7.6
29 |  |  |  | Cc1c(C(=O)NCCN2CCOCC2)cc(-c2cc(C(C)(C)C)c3c(c2)C2(CCO3)CC2)n1CC1CCCCC1 [1/41] | 501 | 6.3/6.9/7.0 | 6.3/6.9/7.0
30 |  |  |  | COC(C)(C)c1cc(-c2cc(C(=O)NC3COC3)c(C)n2CC2CCCCC2)cc(C(C)(C)C)c1 [1/107] | 794 |  | 
31 |  |  |  | Cc1c(C(=O)NCC(C)(C)O)cc(-c2cc(C(=O)N(C)C(C)(C)C)cc(C(C)(C)C)c2)n1CC1CCCCC1 [15/7] | 1260 |  | 
32 |  |  |  | Cc1c(C(=O)NCCCNS(C)(=O)=O)cc(-c2cc(C(C)(C)C)c3c(c2)C2(CCO3)CC2)n1CC1CCCCC1 [17/3] | 398 |  | 
33 |  |  |  | Cc1c(C(=O)NCC2CNCCO2)cc(-c2cc(C(C)(C)C)c3c(c2)C2(CCO3)CC2)n1CC1CCCCC1.Cl (centres unmarked) [17/7] |  | 5.5/<4.7/<4.7 | 5.5/<4.7/<4.7
34 |  |  |  | Cc1c(C(=O)NCC(C)(C)N)cc(-c2cc(C(C)(C)C)c3c(c2)C2(CCO3)CC2)n1CC1CCCCC1.Cl [17/27] |  | 5.6/6.3/6.5 | 5.6/6.3/6.5
35 |  |  |  | Cc1c(C(=O)NC2(C(=O)O)CC2)cc(-c2cc(C(C)(C)C)c3c(c2)C2(CCO3)CC2)n1CC1CCCCC1 [17/50] | 3160 |  | 
36 |  |  |  | Cc1c(C(=O)N2CCS(=O)(=O)CC2)cc(-c2ccc(S(=O)(=O)NC(C)(C)C)c(C(C)(C)C)c2)n1CC1CCCCC1 [17/100] | 794 |  | 
37 |  |  |  | Cc1c(C(=O)N[C@H]2C[C@](C)(C(=O)O)C2)cc(-c2cc(C(C)(C)C)cc(C3(C)CC3)c2)n1CC1CCCCC1 [17/171] | 794 |  | 

Row | Structure (SMILES) | IC50 [1, 2] [nM] | pIC50 (FF) (RORγ; [3]) | pIC50 (REN) (RORγ; [4]) | IC50 [1] [nM] | pIC50 (FF) (RORγ) | pIC50 (REN) (RORγ)
38 | Cc1c(C(=O)NCCS(C)(=O)=O)cc(-c2cc(C(C)(C)C)cc(C(C)(C)C)c2)n1CC1CCCCC1 [1/1] | 251 | 6.6 | 6.7 |  |  | 
39 | Cc1c(C(=O)NCC(N)=O)cc(-c2cc(C(C)(C)C)cc(C(C)(C)C)c2)n1CC1CCCCC1 [1/5] | 1000 | 6.3 | 6.2 |  |  | 
40 | Cc1c(C(=O)N2CC(O)C2)cc(-c2cc(C(C)(C)C)cc(C(C)(C)C)c2)n1CC1CCCCC1 [1/7] | 501 | 6.8 | 6.8 |  |  | 
41 | Cc1c(C(=O)NC2COC2)cc(-c2cc(C(C)(C)C)c3c(c2)C(C)(C)CC(=O)N3C)n1CC1CCCCC1 [1/19] | 1000 | 7.0 | 7.1 |  |  | 
42 | CC(C)(C)NS(=O)(=O)c1ccc(-c2cc(C(=O)NCC3(O)CCOCC3)c(C(F)(F)F)n2CC2CCCCC2)cc1C(C)(C)C [1/27] | 12600 | < 4.7 | < 4.7 |  |  | 
43 | Cc1c(C(=O)N2CCC(C)(O)CC2)cc(-c2cc(C(C)(C)C)cc(C(C)(C)C)c2)n1CC1CCCCC1 [1/37] | 316 | 6.8 | 6.8 |  |  | 
44 | Cc1c(C(=O)NC2COC2)cc(-c2cc(C(C)(C)C)c3c(c2)C2(CCO3)CC2)n1CC1CCCCC1 [1/38] | 251 | 7.2 | 7.3 |  |  | 
45 | Cc1c(C(=O)NC2COC2)cc(-c2cc(C3(C)CC3)c3c(c2)C2(CCO3)CC2)n1CC1CCCCC1 [1/42] | 251 | 7.5 | 7.6 |  |  | 
